Here are results for seven molecules from patent publication US20080207617A1, “Quinoline Derivatives and Quinazoline Derivatives Inhibiting Autophosphrylation of Flt3 and Medicinal Compositions Containing the Same” (KIRIN BEER KABUSHIKI KAISHA, priority 2002, published 2008).

Structures are written as SMILES. Structures can show the parent of a compound that is named as a salt. Where two headings read alike, the source gives them in different places.

By IC50 is commonly meant the concentration that gives 50% inhibition.

For test [1], the target named is T1, FLT3 (Homo sapiens, UniProt P36888).
T1 sequence (P36888 with tags, fused parts or gaps INS600HVDFREYEYD): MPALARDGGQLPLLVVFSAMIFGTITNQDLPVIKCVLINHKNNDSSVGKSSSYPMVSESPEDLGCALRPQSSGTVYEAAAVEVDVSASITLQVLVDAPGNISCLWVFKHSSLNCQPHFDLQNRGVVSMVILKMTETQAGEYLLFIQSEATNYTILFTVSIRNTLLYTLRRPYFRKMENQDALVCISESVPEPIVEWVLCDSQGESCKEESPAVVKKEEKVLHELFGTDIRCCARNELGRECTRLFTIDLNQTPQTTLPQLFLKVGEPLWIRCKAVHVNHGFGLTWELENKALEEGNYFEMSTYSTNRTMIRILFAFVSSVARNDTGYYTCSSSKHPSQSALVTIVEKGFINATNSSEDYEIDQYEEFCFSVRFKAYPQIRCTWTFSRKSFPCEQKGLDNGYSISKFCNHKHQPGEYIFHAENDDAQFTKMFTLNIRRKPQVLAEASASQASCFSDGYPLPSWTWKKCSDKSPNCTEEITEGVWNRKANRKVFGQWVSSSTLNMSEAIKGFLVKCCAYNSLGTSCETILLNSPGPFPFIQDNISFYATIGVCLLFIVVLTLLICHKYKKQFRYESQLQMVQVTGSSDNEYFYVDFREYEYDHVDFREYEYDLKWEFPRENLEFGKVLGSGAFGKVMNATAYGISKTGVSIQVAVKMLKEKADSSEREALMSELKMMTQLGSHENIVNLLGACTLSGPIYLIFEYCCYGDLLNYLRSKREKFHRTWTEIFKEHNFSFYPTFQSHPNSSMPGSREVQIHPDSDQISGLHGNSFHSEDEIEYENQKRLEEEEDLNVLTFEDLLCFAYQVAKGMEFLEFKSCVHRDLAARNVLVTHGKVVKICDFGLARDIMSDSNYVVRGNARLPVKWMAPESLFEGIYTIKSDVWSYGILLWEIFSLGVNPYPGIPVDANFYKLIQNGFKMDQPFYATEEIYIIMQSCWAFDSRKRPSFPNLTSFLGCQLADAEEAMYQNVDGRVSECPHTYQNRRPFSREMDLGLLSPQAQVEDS
In words: Inhibitory activity against FLT3 autophosphorylation using ELISA method. The format is cell-based. The following applies: MV4-11 cells, 1 hr with compound, read-out: IC50 of FLT3-phosphorylation. The method, then: Pharmacological Test Example 1
Measurement of Inhibitory Activity Against FLT3 Autophosphorylation Using ELISA Method
Human leukemia cells MV4-11 (ATCC number: CRL-9591) were cultured in an IMDM medium containing 10% fetal calf serum (purchased from SIGMA) within a 5% carbon dioxide incubator until 50 to 90% confluent. The harvested cells were seeded into 96-wells, plates, containing an IMDM medium containing 0.1% fetal calf serum, in a 96-well multiscreen plate in an amount of 5.0×10^5 per well, a solution of the test compound in dimethyl sulfoxide was added to each well, and the cultivation was continued at 37° C. for one hr. The medium was removed, followed by washing with phosphate buffered saline. A lysis buffer (60 μl) (20 mM HEPES (pH 7.4), 150 mM NaCl, 0.2% Triton X-100, 10% glycerol, 5 mM sodium orthovanadylate, 5 mM disodium ethylenediaminetetraacetate, and 2 mM Na4P2O7) was then added thereto. The mixture was shaken at 4° C. for 2 hr to prepare a cell extracts.
Separately, phosphate buffered saline (50 μl, pH 7.4) containing 5 μg/ml of anti-phospho-tyrosine antibody (PY20; purchased from Transduction Laboratories) was added to a 96-well microplate for ELISA (Maxisorp; purchased from NUNC), followed by standing at 4° C. overnight to form a solid phase on the wells. After washing of the plate, 250 μl of a blocking solution was added, followed by standing at room temperature for 3 hr to perform blocking. After washing, the whole quantity of the cell extract was transferred to the wells, and the plate was then allowed to stand at 4° C. overnight. After washing, an anti-FLT3 antibody (Flt3/Flk2 (C-20), purchased from Santa Cruz Biotechnology) was allowed to react at room temperature for 2 hr, and, after washing, a peroxidase-labeled anti-rabbit Ig antibody (purchased from Amersham) was allowed to react at room temperature for one hr. After washing, a chromophoric substrate for peroxidase (purchased from Sumitomo Bakelite Co., Ltd.) was added thereto to initiate a reaction. After a suitable level of color development, a reaction termination solution was added to stop the reaction, and the absorbance at 450 nm was measured with a microplate reader. The FLT3-phosphorylation activity for each well was determined by presuming the absorbance without the addition of the medicament to be 100% FLT3-phosphorylation activity and the absorbance with the addition of a large excess of a positive control (Compound 1, 10 μM) to be 0% FLT3-phosphorylation activity. The concentration of the test compound was varied on several levels, the FLT3-phosphorylation inhibitory activity was determined for each case, and the concentration of the test compound necessary for inhibiting 50% of FLT3-phosphorylation (IC50) was calculated.

Test [2] concerns MOLM13. In words: Tumor growth inhibitory activities in nude mice xenograft model inoculated with human leukemia cells MOLM13. Format: in vivo. The following applies: Mus musculus, MOLM-13, po, read-out: TGIR (%) (measurement date); for inhibition in vivo at 50 mg/kg: 50 mg/kg orally once a day. The protocol: Pharmacological Test Example 5
Tumor Growth Inhibitory Activities in Nude Mice Xenograft Model Inoculated with Human Leukemia Cells
Human leukemia cells MOLM13 (subdivided from Hayashibara Biochemical Laboratories, Inc.) were subcutaneously transplanted into nude mice. […] The test compound suspended or dissolved in 0.5% methylcellulose was orally administered at a dose of 0.1 ml per 10 g body weight once a day for 9 days. For the control group, only vehicle was administered.
The tumor growth inhibition rate (TGIR) was calculated as follows:
The tumor growth inhibition rate (TGIR)=(1−TX/CX)×100
wherein CX represents the volume of tumor at day X for the control group when the tumor volume at the day of the start of the administration (day 1) was presumed to be 1; and TX represents the volume of tumor at day X for test compound administration groups.
(In general: A xenograft is tissue or cells of one species grown in another, often human tumour cells in immunodeficient mice.)

For `COc1cc2c(Oc3ccc(NC(=O)NCCC(C)(C)C)c(F)c3)ccnc2cc1OCCN1CCCCC1` [Compound 43, 1-(3,3-Dimethyl-butyl)-3-{2-fluoro-4-[6-methoxy-7-(2-piperidin-1-yl-ethoxy)-quinolin-4-yloxy]-phenyl}-urea hydrochloride], the IC50 in test [1] is 216 nM. Also, the inhibition in vivo at 50 mg/kg in test [2] (240 h, day 10) came to 98.1%. Turning to `COc1cc2nccc(Oc3c(Cl)cc(NC(=O)NCCC(C)(C)C)cc3Cl)c2cc1OC` [Compound 6, 1-[3,5-Dichloro-4-(6,7-dimethoxy-quinolin--4-yloxy)-phenyl]-3-(3,3-dimethyl-butyl)-urea], the IC50 in test [1] is 109 nM.

In the case of `COc1cc2nccc(Oc3ccc(NC(=O)NCCC(C)(C)C)cc3F)c2cc1OC` [Compound 10, 1-[4-(6,7-Dimethoxy-quinolin-4-yloxy)-3-fluoro-phenyl]-3-(3,3-dimethyl-butyl)-urea hydrochloride], the IC50 in test [1] was under 1 nM. For the same molecule, in test [2] (240 h, day 10), the inhibition in vivo at 50 mg/kg was found to be 84.8%. On to `COc1cc2nccc(Oc3ccc(NC(=O)NCCC(C)(C)C)cc3Cl)c2cc1OC` [Compound 8, 1-[3-Chloro-4-(6,7-dimethoxy-quinolin-4-yloxy)-phenyl]-3-(3,3-dimethyl-butyl)-urea], for which the half-inhibitory concentration (IC50) in test [1] is under 1 nM. On to `COc1cc2c(Oc3ccc(NC(=O)NCCC(C)(C)C)c(F)c3)ccnc2cc1OCCN1CCOCC1` [Compound 41, 1-(3,3-Dimethyl-butyl)-3-{2-fluoro-4-[6-methoxy-7-(2-morpholin-4-yl-ethoxy)-quinolin-4-yloxy]-phenyl}-urea hydrochloride], for which the IC50 in test [1] was 308 nM. For `COc1cc2nccc(Oc3ccc(NC(=O)NCCC(C)(C)C)cc3)c2cc1OC` [Compound 1, 1-[4-(6,7-Dimethoxy-quinolin-4-yloxy)-phenyl]-3-(3,3-dimethyl-butyl)-urea hydrochloride], in test [1], the IC50 amounted to 2 nM. In test [2] (264 h, day 11), the inhibition in vivo at 50 mg/kg was determined as 53.8%.

As for `COc1cc2c(Oc3ccc(NC(=O)NCCC(C)(C)C)cc3F)ccnc2cc1OCCN1CCCCC1` [Compound 44, 1-(3,3-Dimethyl-butyl)-3-{3-fluoro-4-[6-methoxy-7-(2-piperidin-1-yl-ethoxy)-quinolin-4-yloxy]-phenyl}-urea], the IC50 in test [1] worked out at 200 nM. Further, the inhibition in vivo at 12.5 mg/kg in test [2] (216 h, 12.5 mg/kg orally once a day, day 9) came to 99.6%. For the same molecule, the inhibition in vivo at 25 mg/kg in test [2] (216 h, 25 mg/kg orally once a day, day 9) is 99.8%.
